Reference: patent US7981878B2, “Tumor treatment with gliotoxin derivatives” (priority 2005, dated 2011)

Legend:
[1] = system: Notch2 (N2^IC); test: Nuclear Notch2 activity in B-CLL cells by EMSA (band shift assay); format: cell-based, human; conditions: B-CLL cell cultures incubated with 50 nM Dapt
Protocol: FIG. 3: Gliotoxin is a potent Notch2 trans-activation inhibitor in B-CLL cells. (A) EMSA showing the inhibition of DNA-bound Notch2IC complexes in the presence of 0.2 μg Gliotoxin. B-CLL samples (n=10) were cultured in the presence of 1 ng/ml TPA with or without 0.2 μM Gliotoxin for 24 hours. Nuclear extracts were subjected to EMSA using a oligonucleotide probe spanning a well defined CBF1/NotchIC binding site derived from the CD23a promoter. (B). Corresponding FACS analysis (plus 10 additional B-CLL samples) showing the downregulation of the Notch2 target gene CD23 as well as the induction of apoptosis of Gliotoxin treated B-CLL samples. Columnes represent the percentage of CD19^+CD23^+ (grey bars) and apoptotic cells (black bars: including early apoptotic cells single positive for AnnexinV, and late apoptotic cells double positive for AnnexinV and probidium iodide), respectively.
As drug screening model, a cell culture system was established which conserves the phenotype of freshly isolated B-CLL cells (3×10^6 B-CLL cells/ml RPMI medium+10% FCS, supplemented with 1 ng/ml of TPA). Notch2 activity in the cell nucleus is determined by means of EMSA (electrophoretic mobility shift assay) experiments, and the cell viability (Probidium iodide/annexinV) and CD23 expression (Notch2 target gene) is determined by means of FACS (flow cytometry) analyses, respectively. […]

[2] = target: γ-secretase; conditions: γ-secretase inhibitor; cited from earlier work
[3] = system: K 562, U 937, HCT-15, HCT-116, SW946, LX-1, P 388, colon-26 cell lines; conditions: as indicated in EP 926 242 A1; cited from earlier work

Molecule: C[C@H](NC(=O)Cc1cc(F)cc(F)c1)C(=O)N[C@H](C(=O)OC(C)(C)C)c1ccccc1 [Dapt, reference compound]
- influence on the activity of N2^IC [1]: no influence
- IC50 [2]: 5 to 10 nM

Molecule: acetylgliotoxin
- efficacy against tumour cell lines [3]: effective
